This data set in a line: solvent given as SMILES.

On to `NS(=O)(=O)c1ccc(N2N=C(c3ccc(O)cc3)CC2c2ccccc2)cc1` (centres undefined), for which the absorption maximum stood at 359 nm (in C1CCOC1); 359 nm (in C1COCCO1); 358 nm (in CC#N); 357 nm (in CC(C)O); 357 nm (in CCO); 357 nm (in CCOC(C)=O). The absorption maximum is reported as 361 nm (in CN(C)C=O), 357 nm (in CO), 364 nm (in CS(C)=O) and 359 nm (in O).
As to `COCCC1=Cc2nc1ccc1[nH]c(c3nc(ccc4[nH]c2cc4CCOC)C(CCOC)=C3)c2c(C(=O)OC)c(C(=O)O)ccc12`, the absorption maximum (in Cc1ccccc1) turned out to be 636 nm.
For `CCCN1C(=O)c2c3c(c4c(c2C1=O)CCc1cc(-c2ccc(N(C)C)cc2)c(OC)cc1-4)-c1cc(OC)c(-c2ccc(N(C)C)cc2)cc1CC3`, the absorption maximum is on record as 404 nm (in C1CCCCC1), 409 nm (in C1CCOC1), 407 nm (in CCOC(C)=O) and 412 nm (in Cc1ccccc1).
`Nc1ccc(/C=C/c2cccnc2)cc1`: the absorption maximum is listed as 342 nm (in CC#N) and 336 nm (in CCCCCC).
For `CC[N+]1(CC)CN2C(=N1)C(C(=O)O)=Cc1cc(C)ccc12`, where the note is “in O”, the absorption maximum was determined as 379 nm.
On the same count and under the same terms, the result for `COc1cc(C(=O)O)cc(OC)c1O` reads 260 nm.
The molecule `N#Cc1c(N2CCCCC2)cc(-c2ccccc2)c2c1Cc1ccccc1-2` registered an absorption maximum (in C1CCOC1) of 358 nm.
Molecule `Cc1ccc(-c2nc(-c3cccc(O)c3)[nH]c2-c2ccc(C)cc2)cc1` gave an absorption maximum (in CO) of 300 nm.
Consider `CC1=CC(C)=[N+]2C1=C(c1c3ccccc3c(C)c3ccccc13)c1c(C)cc(C)n1[B-]2(F)F`, for which the absorption maximum runs as follows: (in CC#N) 503 nm; (in CCCCCC) 505 nm; (in CCO) 504 nm; (in CN(C)C=O) 506 nm; (in Cc1ccccc1) 509 nm; (in ClCCl) 506 nm.
Where the note is “in ClCCl”, `COc1ccc(C#Cc2nc3ccccc3nc2-c2ccn(-c3ccccc3)c2)cc1` returned an absorption maximum of 393 nm.
Same read-out and setting: the result for `CCCCN(CCCC)c1ccc(C#Cc2cc(C#Cc3ccc(C(F)(F)F)cc3)c(C#Cc3ccc(C(F)(F)F)cc3)cc2C#Cc2ccc(N(CCCC)CCCC)cc2)cc1` reads 407 nm.
Take `F[B-]1(F)n2cccc2C(c2ccccc2)=C2C=CC(c3cccc(OC4=[N+]5C(=C(c6ccccc6)c6cc(Br)c(Br)n6[B-]5(F)F)C=C4Br)c3)=[N+]21`: for the setting “in ClC(Cl)Cl”, the absorption maximum is reported as 556 nm.
Turning to `CC(C)(C)C1Nc2c(Cl)cc(Cl)cc2C(=O)N1Cc1ccccc1` (centres undefined), the absorption maximum is 360 nm (in CC#N); 350 nm (in CCCCCCCCCCCCCCCC); 367 nm (in CO); 357 nm (in ClC(Cl)Cl); 355 nm (in c1ccccc1).
Take `COc1ccc2c3c([nH]c2c1)C(C)=NCC3`: the absorption maximum is, setting by setting: (in CC#N) 328 nm; (in CS(C)=O) 330 nm; (in O) 372 nm.
As to `CCN(CC)c1ccc2cc(-c3ccc(-c4ccc5c6ccccc6c6c7cc(-c8ccc(-c9cc%10ccc(N(CC)CC)cc%10oc9=O)cc8)ccc7c7ccccc7c6c5c4)cc3)c(=O)oc2c1`, the absorption maximum (in ClC(Cl)Cl) amounted to 412 nm.
Molecule `COc1ccc(C#Cc2c3cc4ccccc4cc3c(C#Cc3ccc(OC)cc3)c3cc4ccccc4cc23)cc1` came in with an absorption maximum (in ClCCl) of 666 nm.
In the case of `CN1C(=CC2=C([O-])C(=O)C2=C(C#N)C#N)C=Cc2ccccc21`, under “in CCO”, the absorption maximum is 515 nm.
For the molecule `COc1ccc2cc([C@H](C)C(=O)O)ccc2c1`, the absorption maximum reads like this: (in CC#N) 332.4 nm; (in CCCCO) 333.3 nm; (in CCO) 332.2 nm; (in CO) 332.4 nm; (in ClCCl) 333.6 nm; (in O) 331.2 nm.
For the setting “in ClCCl”, `COC(=O)C1=C(C(=O)OC)[Se](=O)[C@]23C1=C[C@H](c1ccccc12)c1ccccc13` (some centres undefined) gave an absorption maximum of 341 nm.
Take `c1ccc(Cc2c3ccc(=[N+]4CCCCC4)cc-3oc3cc(N4CCCCC4)ccc23)cc1`: the absorption maximum (in ClCCl) is recorded as 566 nm.
On the same count and under the same terms, the result for `CC(C)(C)NC(=O)c1ccc2ccc3cccc4c3c2c1c1c2ccccc2c2ccccc2c41` reads 392 nm.
Regarding `COc1ccc(C2=Cc3c4ccccc4cc[n+]3[B-](F)(F)O2)cc1`, the absorption maximum (in ClC(Cl)Cl) was found to be 410.5 nm.
On to `CCC1=C(C)c2cc3c(OC)cc(OC)cc3c(=O)n2C1=O`, for which the absorption maximum is, setting by setting: (in CC#N) 433 nm; (in CO) 433 nm; (in CS(C)=O) 434 nm; (in ClC(Cl)Cl) 434 nm.
Consider `Nc1cc(N)cc(-c2nc3ccccc3s2)c1`, for which the absorption maximum turned out to be 360 nm (in C1CCCCC1); 360 nm (in C1COCCO1); 360 nm (in CC#N); 360 nm (in CC(C)O); 360 nm (in CCOC(C)=O); 360 nm (in CCOCC). The absorption maximum reads like this: (in CO) 360 nm; (in O) 360 nm.
Turning to `O=Cc1ccc(C2=Cc3ccccc3P2(=O)c2ccccc2)cc1` (centres undefined), the absorption maximum (in ClCCl) turned out to be 357 nm.
For the molecule `N#CC(C#N)=Cc1ccc(-c2ccc(-c3nc4ccccc4s3)c(O)c2)o1`, the absorption maximum is, setting by setting: (in ClCCl) 426 nm; (in O) 394 nm.
With `COc1ccc2cc(/C=C/c3ccc([N+](=O)[O-])cc3)c(=O)oc2c1`, the absorption maximum (in CC#N) is 392 nm.
`COc1c2ccccc2c(OC)c2c(C#C[Si](C(C)C)(C(C)C)C(C)C)c3cc4ccccc4cc3c(C#C[Si](C(C)C)(C(C)C)C(C)C)c12`: the absorption maximum (in ClCCl) worked out at 686 nm.
Still for that read-out and setting: the result for `O=C1c2cc3ccccc3cc2C2=Nc3ccc4ccccc4[n+]3[B-](F)(F)N12` reads 419 nm.
Regarding `Cc1ccc(-c2nc(-c3ccccc3O)[nH]c2-c2ccc(C)cc2)cc1`, where the note is “in CO”, the absorption maximum was found to be 320 nm.
The molecule `[NH3+]C(Cc1ccccc1)C(=O)[O-]` (centres undefined) gave an absorption maximum (in O) of 258 nm.
`O=c1cc2cc(O)c3cc(O)cc4ccc(o1)c2c43` yielded an absorption maximum (in CC1CCCO1) of 476 nm.
With `COc1cccc2cc(C)c3c4ccccc4[nH]c3c12`, the absorption maximum (in ClCCl) is 360 nm.
Where the note is “in Cc1ccccc1”, `COc1ccc(C2=C(c3ccccc3)C(c3ccccc3)=[N+]3C2=Nc2c(-c4ccc(OC)cc4)c(-c4ccccc4)c(-c4ccccc4)n2[B-]3(F)F)cc1` displayed an absorption maximum of 656 nm.
In the case of `CSc1ccc(/C=C/c2cnc3ccccc3n2)cc1`, the absorption maximum is reported as 376 nm (in C1CCOC1); 377 nm (in CC#N); 373 nm (in CCCCCCC); 383 nm (in CS(C)=O); 381 nm (in ClCCl).
For the setting “in ClCCl”, `COc1ccc(C2=C(C)C3=C(c4c(-c5ccccn5)nc5ccccn45)c4c(C)c(-c5ccc(OC)cc5)c(C)n4[B-](F)(F)[N+]3=C2C)cc1` had an absorption maximum of 555 nm.
With `C/C(=C\c1ccc(Cl)cc1)c1nc2ccccc2s1`, the absorption maximum by setting is: (in C1CCCCC1) 320 nm; (in CO) 320 nm.
For the molecule `CN(C)c1ccc(C2=[N+]3C(=Nc4c(-c5ccccc5)cc(-c5ccc(N(C)C)cc5)n4[B-]3(F)F)C(c3ccccc3)=C2)cc1`, the absorption maximum (in ClC(Cl)Cl) stood at 799 nm.
Take `C1=C2C3=C(C4=[N+]2[B-]2(Oc5ccccc54)Oc4ccccc4-c4c5c(c1n42)C1CCC5CC1)C1CCC3CC1` (centres undefined): the absorption maximum (in ClCCl) was 626 nm.

Source of the values: the Deep4Chem optical property database.
